Like-named read-outs stand apart in the source and are kept apart here.
What was measured:
Format in all cases: in vivo
[1] = test system: S. aureus Smith (ATCC 13709); test: Mouse systemic infection (septicemia) model, S. aureus Smith; conditions: Staphylococcus aureus, CD-1 female mice; for responders at 3 mg/kg: IV 3 mg/kg one hour post infection, read-out: SA Smith septicemia survival IV (3 mg/kg); for responders at 3 mg/kg / responders at 30 mg/kg: survival at 48 hours; for responders at 30 mg/kg: PO 30 mg/kg one hour post infection, read-out: SA Smith septicemia survival PO (30 mg/kg); for ED50: dose that prevents 50% of the mice from death, 48 hours
Procedure: Mouse Systemic Infection Protocol-S. aureus Smith Septicemia
Compounds were screened for antibacterial activity in vivo in a mouse systemic infection (septicemia) model. In the model, CD-1 female mice (18-22 grams) were injected IP with a S. aureus Smith (ATCC 13709) inoculum that results in 0% survival within 24 to 48 hours. The bacterial dose required to achieve this effect was previously established through virulence studies. At one hour post infection, mice received either […] IV or […] PO. Typically, six mice were treated per dose group. Animal survival was assessed and recorded for 48 hours. Percent survival at 48 hours was recorded and PD50 (mg/kg) was determined for each compound tested.

[2] = Pharmacokinetic studies in rats; conditions: rat, plasma, male Sprague Dawley rats, fasted
Procedure: Pharmacokinetic Studies in Rats Test compounds were evaluated in fasted (no food for 18 hours prior to dosing) male Sprague Dawley rats (3 animals per group) by administration of 1 mg/kg intravenously into the jugular vein and […] by oral gavage. Ten plasma samples were drawn for each dosing route up to 24 hours into heparin-coated vacutainer tubes. The plasma concentrations of the test compounds were quantified by LC/MS/MS using an internal standards. WinNONLIN was used to determine PK parameters ±standard deviation (AUC, Cmax, CL, Vss and % oral bioavailabilty (% F) and are set forth in Table F.

[3] = test system: Uropathogenic E. coli EC200; test: Murine kidney infection model, uropathogenic E. coli EC200; conditions: Escherichia coli, po, 36 h, BALB/c mice, read-out: EC200 UTI PO, log10 reduction in CFUs in the kidney versus untreated controls; for log reduction at 2 mg/kg: PO 2 mg/kg at 12 and 24 hours post infection
Procedure: (§1) Kidney Infection Models for Uropathogenic E. coli EC200 and K. pneumoniae ESBL Isolate KP453
Compounds were tested in a BALB/c murine kidney infection model challenged with tetracycline-resistant E. coli strain uropathogenic […] via intravenous injection. […] For IV administration test compound was dosed at 3 mg/kg. Thirty-six hours following initiation of treatment, mice were euthanized and bacterial reduction in the kidney was quantified by plating kidney homogenates. Results are reported in Table D as log10 reduction in colony forming units (CFUs) in the kidney versus untreated controls (receiving no test compound).

[4] = test system: K. pneumoniae ESBL Isolate KP453; test: Murine kidney infection model, K. pneumoniae ESBL isolate KP453; conditions: Klebsiella pneumoniae, po, 36 h, BALB/c mice, PO 50 mg/kg at 9 and 24 hours post infection; read-out: KP453 ESBL UTI PO, log10 reduction in CFUs in the kidney versus untreated controls
Procedure: as §1
Compounds were also tested in BALB/c murine kidney infection model challenged with levofloxacin-resistant, ESBL^+ strain KP453 via intravenous injection with 2% carageenen. At 9 and 24 hours post infection mice were treated orally with 50 mg/kg of test compound. For IV administration, test compounds were dosed at 20 mg/kg. At 36 hours following initiation of treatment, mice were euthanized and bacterial reduction in the kidney was quantified by plating homogenates. Results are reported in Table D as log10 reduction in colony forming units (CFUs) in the kidney versus untreated controls (receiving no test compound).

[5] = ATCC13709, IV, read-out: SA Smith septicemia PD50 IV
[6] = ATCC13709, PO, read-out: SA Smith septicemia PD50 PO

Compound	responders at 3 mg/kg ([1]; ATCC13709, iv, 48 h)	responders at 30 mg/kg ([1]; ATCC13709, po, 48 h)	further results
CN(C)[C@@H]1C(O)=C(C(N)=O)C(=O)[C@@]2(O)C(O)=C3C(=O)c4c(O)cc(CN(C)C(C)(C)C5CC5)c(F)c4C[C@H]3C[C@@H]12 [Compound S2-4-29]	100%	100%	ED50 [1, 5]: 1 mg/kg; ED50 [1, 6]: 3.5 mg/kg; clearance ([2]; IV 1 mg/kg, read-out: Cl, IV Rat PK): 26.5 mL/min/kg; bioavailability ([2]; oral 10 mg/kg vs IV 1 mg/kg, read-out: % F (oral bioavailability), Oral Rat PK): 25.4%; AUC ([2]; IV 1 mg/kg, read-out: AUC, IV Rat PK): 616 ng·h/mL; Cmax ([2]; IV 1 mg/kg, read-out: Cmax, IV Rat PK): 112 ng/mL; AUC ([2]; oral gavage 10 mg/kg, read-out: AUC, Oral Rat PK): 1600 ng·h/mL
C[C@H]1CCCCN1Cc1cc(O)c2c(c1F)C[C@H]1C[C@H]3[C@H](N(C)C)C(O)=C(C(N)=O)C(=O)[C@@]3(O)C(O)=C1C2=O [Compound S2-4-65]	100%	100%	log reduction at 2 mg/kg [3]: 3.18; log reduction at 12 mg/kg ([3]; PO @ 12 mpk): 4.61; log reduction at 50 mg/kg [4]: 2.28; ED50 [1, 6]: 8.4 mg/kg
CN(C)[C@@H]1C(O)=C(C(N)=O)C(=O)[C@@]2(O)C(O)=C3C(=O)c4c(O)cc(CN5CCCC5)c(F)c4C[C@H]3C[C@@H]12 [Compound S3-5-5]	100%	100%	log reduction at 2 mg/kg [3]: 2.26; log reduction at 50 mg/kg [4]: 1.01
CCN(Cc1cc(O)c2c(c1Cl)C[C@H]1C[C@H]3[C@H](N(C)C)C(O)=C(C(N)=O)C(=O)[C@@]3(O)C(O)=C1C2=O)[C@H](C)C(C)(C)C [Compound S15-13-122]	–	–	log reduction at 2 mg/kg [3]: 2.64; log reduction at 50 mg/kg [4]: 1.84
CN(C)[C@@H]1C(O)=C(C(N)=O)C(=O)[C@@]2(O)C(O)=C3C(=O)c4c(O)cc(CN5CCCC5)c(Cl)c4C[C@H]3C[C@@H]12 [Compound S15-13-187]	100%	100%	log reduction at 3 mg/kg ([3]; PO @ 3 mpk): 3.46
CN(C)[C@@H]1C(O)=C(C(N)=O)C(=O)[C@@]2(O)C(O)=C3C(=O)c4c(O)cc(CN5C6CCC5CC6)c(Cl)c4C[C@H]3C[C@@H]12 [Compound S15-13-222]	–	–	responders at 3 mg/kg ([1]; ATCC13709): 100%; responders at 30 mg/kg ([1]; ATCC13709): 100%
C[C@H]1CCC[C@H](C)N1Cc1cc(O)c2c(c1Cl)C[C@H]1C[C@H]3[C@H](N(C)C)C(O)=C(C(N)=O)C(=O)[C@@]3(O)C(O)=C1C2=O [Compound S15-13-225]	100%	100%	–
CN(C)[C@@H]1C(O)=C(C(N)=O)C(=O)[C@@]2(O)C(O)=C3C(=O)c4c(O)cc(CN5CC[C@H](F)C5)c(Cl)c4C[C@H]3C[C@@H]12 [Compound S15-13-226]	100%	83%	–
CN(C)C(=O)C(C)(C)N(C)Cc1cc(O)c2c(c1Cl)C[C@H]1C[C@H]3[C@H](N(C)C)C(O)=C(C(N)=O)C(=O)[C@@]3(O)C(O)=C1C2=O [Compound S15-13-227]	17%	0%	–
CN(C)c1c(CN2CCCC2(C)C)cc(O)c2c1C[C@H]1C[C@H]3[C@H](N(C)C)C(O)=C(C(N)=O)C(=O)[C@@]3(O)C(O)=C1C2=O [Compound S16-10-11]	100%	100%	ED50 [1, 6]: 10 mg/kg
CN(C)c1c(CNC2C3CC4CC(C3)CC2C4)cc(O)c2c1C[C@H]1C[C@H]3[C@H](N(C)C)C(O)=C(C(N)=O)C(=O)[C@@]3(O)C(O)=C1C2=O (some centres unmarked) [Compound S16-10-18]	17%	0%	–
CN(C)c1c(CN(C)C2(C)CCC2)cc(O)c2c1C[C@H]1C[C@H]3[C@H](N(C)C)C(O)=C(C(N)=O)C(=O)[C@@]3(O)C(O)=C1C2=O [Compound S16-10-107]	100%	100%	–
CN(C)c1c(CN2CCCCCC2)cc(O)c2c1C[C@H]1C[C@H]3[C@H](N(C)C)C(O)=C(C(N)=O)C(=O)[C@@]3(O)C(O)=C1C2=O [Compound S16-10-177]	100%	100%	–
CN(C)[C@@H]1C(O)=C(C(N)=O)C(=O)[C@@]2(O)C(O)=C3C(=O)c4c(cc(F)c(CNCC(C)(C)C)c4O)C[C@H]3C[C@@H]12 [Compound S19-8-1]	100%	100%	ED50 [1, 5]: 0.36 mg/kg; ED50 [1, 6]: 12.2 mg/kg
CN(C)[C@@H]1C(O)=C(C(N)=O)C(=O)[C@@]2(O)C(O)=C3C(=O)c4c(O)cc(NC(=O)CN5CCCC5)cc4C[C@H]3C[C@@H]12 [Compound S21-12-1]	100%	33%	–
COc1c(CN2CCCC2(C)C)cc(O)c2c1C[C@H]1C[C@H]3[C@H](N(C)C)C(O)=C(C(N)=O)C(=O)[C@@]3(O)C(O)=C1C2=O [Compound S24-9-10]	100%	100%	–
CCC(C)(C)N(C)Cc1cc(O)c2c(c1OC)C[C@H]1C[C@H]3[C@H](N(C)C)C(O)=C(C(N)=O)C(=O)[C@@]3(O)C(O)=C1C2=O [Compound S24-9-19]	100%	100%	–
CN(C)[C@@H]1C(O)=C(C(N)=O)C(=O)[C@@]2(O)C(O)=C3C(=O)c4c(O)cc(CN[C@H]5CC6CCC5C6)c(C(F)(F)F)c4C[C@H]3C[C@@H]12 (some centres unmarked) [Compound S25-11-12]	0%	20%	–
C[C@H]1CCCN1Cc1cc(O)c2c(c1C(F)(F)F)C[C@H]1C[C@H]3[C@H](N(C)C)C(O)=C(C(N)=O)C(=O)[C@@]3(O)C(O)=C1C2=O [Compound S25-11-48]	100%	100%	–
CN(C)[C@@H]1C(O)=C(C(N)=O)C(=O)[C@@]2(O)C(O)=C3C(=O)c4c(O)cc(CN5CCCCCC5)c(C(F)(F)F)c4C[C@H]3C[C@@H]12 [Compound S25-11-56]	67%	33%	–
CN(C)[C@@H]1C(O)=C(C(N)=O)C(=O)[C@@]2(O)C(O)=C3C(=O)c4c(O)cc(CN5CCCCC5)c(C(F)(F)F)c4C[C@H]3C[C@@H]12 [Compound S25-11-68]	50%	83%	–
CC(C)[C@@H](C)NCc1cc(O)c2c(c1C(F)(F)F)C[C@H]1C[C@H]3[C@H](N(C)C)C(O)=C(C(N)=O)C(=O)[C@@]3(O)C(O)=C1C2=O [Compound S25-11-171]	83%	17%	–
CN(C)[C@@H]1C(O)=C(C(N)=O)C(=O)[C@@]2(O)C(O)=C3C(=O)c4c(O)cc(C(C)(C)N(C)CC5CCCC5)c(F)c4C[C@H]3C[C@@H]12 [Compound S27-9-5]	83%	67%	–
CC(C)CN(C)C(C)(C)c1cc(O)c2c(c1Cl)C[C@H]1C[C@H]3[C@H](N(C)C)C(O)=C(C(N)=O)C(=O)[C@@]3(O)C(O)=C1C2=O [Compound S27-9-7]	17%	33%	–
